Results on three compounds are retold here after patent US20130330396A1, “METHODS FOR THE TREATMENT OF THROAT DISCOMFORT” (INTERCONTINENTAL GREAT BRANDS LLC, priority 2009, published 2013).

The structures appear in SMILES notation.

For assay [1] the following is noted: menthol-containing lozenge; cited from earlier work.
Assay [2] can be described thus: Sensory evaluation of cooling agent-containing fondants (location, intensity, onset speed of cooling sensation). As to conditions: for Long-lasting mouth cooling / Long-lasting throat cooling / Predominant mouth cooling / Predominant throat cooling: in fondant at 0.03, 0.06 and 0.09 weight percent, approx. 0.5 gram dissolved in the mouth, six evaluators. Format: in vivo. Here is the method:
The cooling agents N-ethyl-2,2-diisopropylbutanamide and N,2,3-trimethyl-2-isopropylbutanamide were evaluated in fondant at concentrations of 0.03, 0.06, and 0.09 weight percent. The fondant base consisted of 85 weight percent 6X fondant sugar and 15 weight percent deionized water.
Sensory evaluations of the cooling agent-containing fondants were conducted by six evaluators, who observed the location, intensity, and onset speed of cooling sensation as they tasted approximately 0.5 gram of fondant by allowing it to dissolve in the mouth.

A short description of assay [3]: Inventors' observations on bitterness and throat versus mouth cooling. As to conditions: in vivo. An excerpt:
The present inventors have observed that N-ethyl-2,2-diisopropylbutanamide is a particularly effective for throat soothing. […] The structures of N-ethyl-2,2-diisopropylbutanamide and N,2,3-trimethyl-2-isopropylbutanamide, which differ only by two methylene (—CH2—) groups, are shown below.

Turning to `CC1CCC(C(C)C)C(O)C1` (stereo not drawn) [menthol], the “Location of physiological cooling effect (throat versus mouth)” value in assay [1] is reported as “felt primarily in the mouth rather than the throat”.

With `CCNC(=O)C(CC)(C(C)C)C(C)C` [Example 1, N-ethyl-2,2-diisopropylbutanamide], in assay [2], the Long-lasting mouth cooling entry was “No”, the Long-lasting throat cooling result was “Yes”, the Predominant mouth cooling entry is on record as “No” and the Predominant throat cooling result was “Yes”. The “Throat cooling relative to N,2,3-trimethyl-2-isopropylbutanamide” value in assay [2] (when used in a candy system) was “superior and unexpected throat cooling”. For the same compound, the “Location of cooling effect (throat versus mouth)” value in assay [3] is recorded as “selectivity for throat cooling over mouth cooling”.

In the case of `CNC(=O)C(C)(C(C)C)C(C)C` [Example 2, N,2,3-trimethyl-2-isopropylbutanamide], in assay [2], the Long-lasting mouth cooling result is “No”, the Long-lasting throat cooling result is reported as “No”, the Predominant mouth cooling result was “Yes” and the Predominant throat cooling entry was “No”. The “Location of cooling effect (throat versus mouth)” value in assay [3] is “primarily in the mouth rather than the throat”.
